Laboratory results as given in ChEMBL document CHEMBL1201862, “PubChem BioAssay data set” (2004).
Calls of active or inactive are those of the source.

Assays:
[1] = viability loss in HeLa cells – cytotoxicity control for MgcRacGAP inhibitor project, dose response (AID 624300); format: functional
[2] = molecular target: T1, Rac GTPase-activating protein 1 (Homo sapiens, UniProt Q9H0H5); assay: blockers of MgcRacGAP-driven Rac1 GTP hydrolysis – biochemical, ADP Hunter fluorescence, primary and confirmatory, confirmation (AID 624330); format: functional
T1 sequence (Q9H0H5 whole entry): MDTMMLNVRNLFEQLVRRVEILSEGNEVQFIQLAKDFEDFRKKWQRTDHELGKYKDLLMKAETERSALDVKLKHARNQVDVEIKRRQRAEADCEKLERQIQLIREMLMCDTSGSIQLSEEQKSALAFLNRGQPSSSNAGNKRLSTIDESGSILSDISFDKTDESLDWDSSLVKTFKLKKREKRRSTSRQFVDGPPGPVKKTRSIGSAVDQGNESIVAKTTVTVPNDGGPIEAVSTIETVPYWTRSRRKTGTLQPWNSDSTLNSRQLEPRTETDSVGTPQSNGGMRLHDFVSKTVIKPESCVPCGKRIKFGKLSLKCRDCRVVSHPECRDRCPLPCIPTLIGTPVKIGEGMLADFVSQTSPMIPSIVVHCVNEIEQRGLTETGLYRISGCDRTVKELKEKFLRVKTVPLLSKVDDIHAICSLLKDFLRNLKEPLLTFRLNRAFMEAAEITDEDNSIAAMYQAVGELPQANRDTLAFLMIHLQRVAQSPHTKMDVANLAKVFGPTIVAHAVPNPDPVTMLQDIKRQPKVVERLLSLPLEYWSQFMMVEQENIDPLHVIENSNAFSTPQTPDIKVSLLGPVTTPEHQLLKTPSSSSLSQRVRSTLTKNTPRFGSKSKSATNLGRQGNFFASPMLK

Interleukin-8 [3] = molecular target: T2, Interleukin-8 (Homo sapiens, UniProt P10145); assay: Dose Response confirmation of uHTS small molecule hits for cystic fibrosis induced NFkb Inhibitors in a TNFa-induced IL8 counterscreen.; format: functional; conditions: read-out: IC50_Mean
T2 sequence (P10145 whole entry): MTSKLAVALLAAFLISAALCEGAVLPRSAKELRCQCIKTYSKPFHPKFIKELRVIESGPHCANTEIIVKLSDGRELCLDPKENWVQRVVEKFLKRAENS

Interleukin-8 [4] = molecular target: T2, Interleukin-8; assay: Dose Response confirmation of uHTS small molecule hits for cystic fibrosis induced NFkb Inhibitors in a PAF-induced IL8 counterscreen.; format: functional; conditions: read-out: IC50_Mean
[5] = molecular target: Photoreceptor-specific nuclear receptor (Homo sapiens, UniProt Q9Y5X4); format: functional, cell-based;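 further: CHO-S cells with Gal4-NCOR and VP16-NR2E3 two-hybrid luciferase reporter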
P388/ADR = assay: cells; format: functional; conditions: Mus musculus, P388/ADR
SN12K1 = assay: cells; format: functional; conditions: Homo sapiens
P388 = assay: cells; format: functional; conditions: Mus musculus
Vero = assay: cells; format: functional; conditions: Chlorocebus sabaeus
[6] = Trypanosoma cruzi growth suppression in host cells – NIH3T3 host cells, beta-gal luminescence, confirmation (AID 2044); format: functional, cell-based;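 further: intracellular parasites grown in NIH/3T3 mouse fibroblasts as host cells; luminescent beta-galactosidase reporter signal from transgenic T. cruzi replicating inside host cells; inhibitors lower the luminescence signal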
[7] = NIH3T3 cell viability loss – ATP luminescence, mouse fibroblasts, counter-screen, dose response (AID 2010); format: functional, cell-based;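 further: cells exposed to compound for about 90 hours before reading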
[8] = reduction of Shn3 3'UTR-driven luciferase in osteoblasts – cell-based, Clone20 osteoblasts, firefly luciferase, cherry-picked, dose response (AID 624132); format: functional;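 further: firefly luciferase luminescence from reporter carrying the Shn3 3'UTR in osteoblasts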
[9] = non-specific 3'UTR reporter inhibition in Clone20-Shn3RL – cell-based, Renilla luciferase, cherry-picked, counter-screen for Shn3 inhibitor project, dose response (AID 624133); format: functional
[10] = loss of viability in HepG2 cells – cell-based, CellTiter-Glo, cherry-picked, cytotoxicity control for Shn3 inhibitor project, dose response (AID 624134); format: functional

Chain of Photoreceptor-specific nuclear receptor (Q9Y5X4 whole entry, the tested form may be a part): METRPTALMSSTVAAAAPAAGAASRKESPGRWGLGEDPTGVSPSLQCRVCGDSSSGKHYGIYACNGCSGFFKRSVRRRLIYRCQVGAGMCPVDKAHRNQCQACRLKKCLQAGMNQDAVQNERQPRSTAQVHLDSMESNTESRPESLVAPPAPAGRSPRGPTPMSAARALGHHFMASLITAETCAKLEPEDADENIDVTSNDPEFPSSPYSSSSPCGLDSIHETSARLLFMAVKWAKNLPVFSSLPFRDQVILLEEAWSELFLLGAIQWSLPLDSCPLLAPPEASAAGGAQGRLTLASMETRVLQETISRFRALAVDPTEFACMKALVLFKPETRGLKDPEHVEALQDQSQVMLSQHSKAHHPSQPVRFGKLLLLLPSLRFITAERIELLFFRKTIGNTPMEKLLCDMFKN

COc1cc2c(cc1NC(=O)C(Cl)Cl)-c1ccc(NC(=O)C(Cl)Cl)cc1C2
CC50 [1]: 10.3 µM (active)
IC50 [2]: 58.4 µM (active)

CCC1(O)C(=O)OCc2c1cc1n(c2=O)Cc2cc3cc(O)ccc3nc2-1 (stereo not drawn)
IC50 (Interleukin-8 [3]): 40.5 µM (inactive)
IC50 (Interleukin-8 [4]): 3 µM (active)
IC50 [5]: 4.21 µM (active)

COCOc1ccc(OC)cc1
GI50 (P388/ADR): > 100 µM (inactive)
GI50 (SN12K1): > 100 µM (inactive)
GI50 (P388): > 100 µM (inactive)

O=[N+]([O-])c1cc(C(F)(F)F)cc2c1SC1=Nc3ccccc3CN12
GI50 (P388/ADR): > 100 µM (inactive)
GI50 (SN12K1): > 100 µM (inactive)
GI50 (P388): > 100 µM (inactive)

N/C(=N/O)N/N=C\c1cc(Cl)cc(Cl)c1O
GI50 (P388/ADR): 0.998 µM (active)
GI50 (SN12K1): 0.366 µM (active)
GI50 (P388): 0.0182 µM (active)

N=C(N)N/N=C/c1ccc(Cl)cc1Cl
CC50 [1]: 66.3 µM (active)
CC50 (Vero): 18.9 µM (active)
EC50 [6]: 0.204 µM (active)
EC50 [7]: 19.4 µM (active)

Cc1ccc(/N=C/c2cc3c(cc2O)OC(N)=C(C#N)C3c2ccccc2)cc1 (stereo not drawn)
IC50 (Interleukin-8 [3]): > 79 µM (inactive)
IC50 (Interleukin-8 [4]): 5.76 µM (active)

COc1cc(/C=N/NC(=O)c2cccc(NC(=O)c3ccccc3C)c2)ccc1O
CC50 [1]: 100 µM (active)
IC50 [2]: 35.9 µM (active)

N/C(=N\O)N/N=C/c1ccc2c(c1)OCCO2
GI50 (P388/ADR): 12.8 µM (inactive)
GI50 (SN12K1): 2.88 µM (inactive)
GI50 (P388): 13.1 µM (inactive)

Cc1n[nH]c2ccc(-c3cncc(OC[C@@H](N)Cc4c[nH]c5ccccc45)c3)cc12 [A-443654]
AC50 [8]: 1.77 µM (active)
AC50 [9]: 2.85 µM (active)
AC50 [10]: 7.4 µM (active)
